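Protocol summary: plate cells (96-well), add compound at 5 concentrations, incubate 48 h, interpolate endpoints linearly. GI50 marks 50% less growth.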 Calls of active or inactive are those of the source. No stated cut-off is given here; in the data, active = GI50 up to about 1.1 µM and inactive = higher. Bounds are passed on as bounds.

Results on 8 compounds are retold here after ChEMBL document CHEMBL1201862, “PubChem BioAssay data set” (2004).

Some test systems named below: TK-10; HCT-116; K562; HOP-92; EKVX; KM12; IGROV-1; HOP-62; SN12C; OVCAR-4; U-251; HL-60; MDA-N; 786-0; SK-MEL-2; HT-29; MDA-MB-231; SK-MEL-5; M14; NCI-H460.
Experiment in all cases: NCI-60 cell line screen, 48 h

For the compound `CC1(c2ccc(Cl)cc2)c2ccccc2C(=O)N1CCCN1C(=O)c2ccccc2C1=O` (stereo unspecified), the GI50 in the assay on TK-10 is > 100 µM (inactive); in the assay with HCT-116 it was 13.6 µM (inactive); in the assay with K562, 50.5 µM (inactive); with HOP-92, 73.6 µM (inactive); in the assay with EKVX, 3.36 µM (inactive); in the assay on KM12, 20.9 µM (inactive). Further, the GI50 in the assay with IGROV-1 was 9.33 µM (inactive); in the assay with HOP-62, 49.7 µM (inactive); in the assay with SN12C, > 100 µM (inactive); in the assay with OVCAR-4, 61.8 µM (inactive); in the assay on U-251, 52.8 µM (inactive); in the assay with HL-60, 28.5 µM (inactive). In addition, the GI50 with MDA-N was 58.7 µM (inactive); in the assay with 786-0, 26.2 µM (inactive); in the assay with SK-MEL-2, 20.3 µM (inactive); with HT-29, 32.2 µM (inactive); in the assay on MDA-MB-231, > 100 µM (inactive); in the assay with SK-MEL-5, 16.4 µM (inactive).
Turning to `Cc1nc(OCc2ccccc2)c2ncn(CCO)c2n1`, the GI50 with M14 was > 100 µM (inactive); in the assay with TK-10 it was > 100 µM (inactive); in the assay with HCT-116, > 100 µM (inactive); in the assay on HOP-92, 51.8 µM (inactive); in the assay with KM12, > 100 µM (inactive); in the assay with IGROV-1, > 100 µM (inactive). Also, the GI50 with NCI-H460, in the assay on SN12C, in the assay on OVCAR-4, with U-251, with HL-60 and in the assay with MDA-N was > 100 µM (inactive) each time. The GI50 in the assay on 786-0, in the assay with SK-MEL-2, in the assay on HT-29, in the assay on MDA-MB-231 and in the assay with SK-MEL-5 was > 100 µM (inactive) each time.
With `C=C1c2nc3ccccc3n2C=C(c2ccc(OC)cc2)N1c1ccc(OC)cc1`, the GI50 in the assay with M14 was 39.8 µM (inactive); with TK-10, 10.8 µM (inactive); in the assay with HCT-116, 17.4 µM (inactive); in the assay with K562 it was > 100 µM (inactive); with HOP-92, 15.6 µM (inactive); with EKVX it was 25.5 µM (inactive). In addition, the GI50 with KM12 was 14.6 µM (inactive); in the assay on IGROV-1 it was 10.6 µM (inactive); in the assay on NCI-H460, 13.8 µM (inactive); in the assay with SN12C, 17.8 µM (inactive); in the assay on OVCAR-4, 7.78 µM (inactive); with U-251, 9.71 µM (inactive). The GI50 with HL-60 was > 100 µM (inactive); with MDA-N, 22.1 µM (inactive); with 786-0 it was 5.4 µM (inactive); with SK-MEL-2, 29.3 µM (inactive); with MDA-MB-231 it was 20 µM (inactive); in the assay with SK-MEL-5 it was 7.45 µM (inactive).
For the compound `COc1ccc2cc(C(C)C(=O)N3CCOC3=O)ccc2c1` (stereo unspecified), the GI50 with M14, with TK-10, with HCT-116, in the assay with K562, with HOP-92 and in the assay with EKVX was > 100 µM (inactive) in each case. Besides, the GI50 in the assay on KM12, in the assay with IGROV-1, in the assay on HOP-62, in the assay on NCI-H460, in the assay on SN12C and in the assay on OVCAR-4 was > 100 µM (inactive) each time. The GI50 with U-251, with HL-60, with MDA-N, with 786-0, with HT-29 and in the assay on MDA-MB-231 was > 100 µM (inactive) each time. For the same compound, the GI50 in the assay with SK-MEL-5 is > 100 µM (inactive).
Consider `C=CC(C)(C)c1cc([C@@H]2COc3cc(O)ccc3C2=O)c(O)c(O)c1OC`, for which the GI50 in the assay on M14 was 22.3 µM (inactive); in the assay with TK-10 it was > 100 µM (inactive); with HCT-116, 16.9 µM (inactive); in the assay on K562, 34.8 µM (inactive); in the assay on HOP-92 it was 18.8 µM (inactive); with EKVX, 28.6 µM (inactive). The GI50 is 19.8 µM (inactive) in the assay on KM12; 66.4 µM (inactive) in the assay with NCI-H460; 17.6 µM (inactive) in the assay with SN12C; 16.9 µM (inactive) in the assay on OVCAR-4; 20.2 µM (inactive) in the assay with U-251; 22.7 µM (inactive) in the assay on HL-60. Further, the GI50 was 22.2 µM (inactive) in the assay with MDA-N; 14.3 µM (inactive) with 786-0; 22.5 µM (inactive) in the assay on SK-MEL-2; 21.9 µM (inactive) in the assay with HT-29; 25.2 µM (inactive) in the assay with MDA-MB-231; 19.7 µM (inactive) with SK-MEL-5.
`CSc1ncc2c(n1)-c1ccccc1OC2`: the GI50 is 45.4 µM (inactive) in the assay on M14; 45.1 µM (inactive) with TK-10; 70.8 µM (inactive) in the assay on HCT-116; 25.6 µM (inactive) with HOP-92; 34.3 µM (inactive) with EKVX; > 100 µM (inactive) with KM12. Further, the GI50 in the assay on IGROV-1 is 34.4 µM (inactive); with NCI-H460, 42.9 µM (inactive); in the assay on SN12C it was 39.7 µM (inactive); in the assay on OVCAR-4, 61 µM (inactive); in the assay on U-251 it was 51.3 µM (inactive); in the assay on HL-60 it was 38.9 µM (inactive). Also, the GI50 in the assay with MDA-N was 57.1 µM (inactive); with 786-0, 72.6 µM (inactive); in the assay on SK-MEL-2, > 100 µM (inactive); with HT-29, 40.4 µM (inactive); in the assay on MDA-MB-231, 16.7 µM (inactive); in the assay with SK-MEL-5, 53.1 µM (inactive).
For `CCc1nc(Cl)nc(Cl)c1Cl`, the GI50 is 1.28 µM (inactive) in the assay with M14; 6.93 µM (inactive) in the assay with TK-10; 0.948 µM (active) in the assay with HCT-116; 0.107 µM (active) in the assay on K562; 2.11 µM (inactive) with HOP-92; 11.4 µM (inactive) in the assay on EKVX. Further, the GI50 with KM12 was 3.48 µM (inactive); in the assay on IGROV-1, 3.72 µM (inactive); in the assay with HOP-62 it was 8.05 µM (inactive); in the assay with NCI-H460, 7.98 µM (inactive); with SN12C, 2.22 µM (inactive); in the assay with OVCAR-4, 0.553 µM (active). Moreover, the GI50 in the assay with U-251 was 1.39 µM (inactive); in the assay on HL-60 it was 1.36 µM (inactive); in the assay on MDA-N, 1.77 µM (inactive); in the assay with 786-0 it was 0.415 µM (active); in the assay on HT-29, 0.394 µM (active); with MDA-MB-231, 1.63 µM (inactive). For the same compound, the GI50 in the assay on SK-MEL-5 is 2.56 µM (inactive).
With `CO[C@@H](c1ccccc1)[C@H](O)[C@](O)(c1ccccc1)P(=O)(OC)OC`, the GI50 with M14 was > 100 µM (inactive); in the assay on TK-10, > 100 µM (inactive); in the assay on HCT-116 it was > 100 µM (inactive); in the assay on K562, > 100 µM (inactive); in the assay with HOP-92, 91.6 µM (inactive); in the assay with EKVX, > 100 µM (inactive). Moreover, the GI50 in the assay with KM12, in the assay with IGROV-1, in the assay on NCI-H460, in the assay with SN12C, with OVCAR-4 and with U-251 was > 100 µM (inactive) in each case. The GI50 with HL-60, in the assay with MDA-N, in the assay on 786-0, in the assay with SK-MEL-2, with HT-29 and in the assay on MDA-MB-231 was > 100 µM (inactive) each time. Also, the GI50 with SK-MEL-5 is > 100 µM (inactive).
